Laboratory results reported in PubChem BioAssay AID1963980 (Molecular Pharmacology Branch, DTP, NCI, 2024).

System: 475296-252-R-J1-PDC spheroid viability
Assay: Anticancer human tumor 475296-252-R-J1-PDC patient-derived rectal carcinoma cell line growth inhibition [PI3K]
Settings: spheroids with HUVEC and MSC; for IC50: curve of first compound; for viability, T/C: stronger effect = lower value; active = viability on the fitted dose curve at most 10% of control; inactive = the rest
Summary of the method: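 Multi-cell spheroids combine tumor cells with HUVEC and human MSCs, treated with targeted agents alone or with inavolisib, alpelisib, duvelisib or copanlisib. Concentrations fall in half-log steps from at or near clinical Cmax, or from 10 microM where Cmax is unknown; viability read-out.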

[1] = second compound 0.0316 µM, first compound 0.0316 µM
[2] = second compound 0.0316 µM, first compound 0.1 µM
[3] = second compound 0.0316 µM, first compound 0.316 µM
[4] = second compound 0.0316 µM, first compound 1 µM
[5] = second compound 0.0316 µM, first compound 3.16 µM
[6] = second compound 0.0316 µM, first compound 10 µM
[7] = second compound 0.1 µM, first compound 0.0316 µM
[8] = second compound 0.1 µM, first compound 0.1 µM
[9] = second compound 0.1 µM, first compound 0.316 µM
[10] = second compound 0.1 µM, first compound 1 µM
[11] = second compound 0.1 µM, first compound 3.16 µM
[12] = second compound 0.1 µM, first compound 10 µM
[13] = second compound 0.316 µM, first compound 0.0316 µM
[14] = second compound 0.316 µM, first compound 0.1 µM
[15] = second compound 0.316 µM, first compound 0.316 µM
[16] = second compound 0.316 µM, first compound 1 µM
[17] = second compound 0.316 µM, first compound 3.16 µM
[18] = second compound 0.316 µM, first compound 10 µM
[19] = second compound 1 µM, first compound 0.0316 µM
[20] = second compound 1 µM, first compound 0.1 µM
[21] = second compound 1 µM, first compound 0.316 µM
[22] = second compound 1 µM, first compound 1 µM
[23] = second compound 1 µM, first compound 3.16 µM
[24] = second compound 1 µM, first compound 10 µM
[25] = second compound 3.16 µM, first compound 0.0316 µM
[26] = second compound 3.16 µM, first compound 0.1 µM
[27] = second compound 3.16 µM, first compound 0.316 µM
[28] = second compound 3.16 µM, first compound 1 µM
[29] = second compound 3.16 µM, first compound 3.16 µM
[30] = second compound 3.16 µM, first compound 10 µM
[31] = second compound 10 µM, first compound 0.0316 µM
[32] = second compound 10 µM, first compound 0.1 µM
[33] = second compound 10 µM, first compound 0.316 µM
[34] = second compound 10 µM, first compound 1 µM
[35] = second compound 10 µM, first compound 3.16 µM
[36] = second compound 10 µM, first compound 10 µM
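Note: spheroids exposed to agents for seven days before readout.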

C#Cc1c(F)ccc2cc(O)cc(-c3ncc4c(N5CC6CCC(C5)N6)nc(OCC56CCCN5CC(F)C6)nc4c3F)c12 (stereo not given) + Cc1nc(NC(=O)N2CCCC2C(N)=O)sc1-c1ccnc(C(C)(C)C(F)(F)F)c1
0.267 µM: IC50 (second compound 10 µM)
active: viability, T/C [30] 10.4% | viability, T/C [34] 9.2% | viability, T/C [35] 5.28% | viability, T/C [36] 3.54%
0.689 µM: IC50 (second compound 3.16 µM)
inactive: viability, T/C [1] 88.4% | viability, T/C [2] 84.1% | viability, T/C [3] 88.5% | viability, T/C [4] 74.2% | viability, T/C [5] 67.9% | viability, T/C [6] 66% | viability, T/C [7] 87.1% | viability, T/C [8] 78.9% | viability, T/C [9] 88.1% | viability, T/C [10] 64.6% | viability, T/C [11] 66.9% | viability, T/C [12] 59% | viability, T/C [13] 80.2% | viability, T/C [14] 84.7% | viability, T/C [15] 73.6% | viability, T/C [16] 71.7% | viability, T/C [17] 61.1% | viability, T/C [18] 48% | viability, T/C [19] 78.4% | viability, T/C [20] 82.8% | viability, T/C [21] 72% | viability, T/C [22] 65.5% | viability, T/C [23] 60.3% | viability, T/C [24] 32.7% | viability, T/C [25] 89.1% | viability, T/C [26] 75.3% | viability, T/C [27] 65.1% | viability, T/C [28] 44.8% | viability, T/C [29] 21.7% | viability, T/C [31] 73.4% | viability, T/C [32] 70.2% | viability, T/C [33] 46.6%
4.42 µM: IC50 (second compound 1 µM)
> 10 µM: IC50 (second compound 0.0316 µM) | IC50 (second compound 0.1 µM)
8.41 µM: IC50 (second compound 0.316 µM)

C=CC(=O)N1CCN(c2nc(=O)n(-c3c(C)ccnc3C(C)C)c3nc(-c4c(O)cccc4F)c(F)cc23)C(C)C1 (stereo not given) + Cc1nc(NC(=O)N2CCCC2C(N)=O)sc1-c1ccnc(C(C)(C)C(F)(F)F)c1
inactive: viability, T/C [1] 90% | viability, T/C [2] 79.2% | viability, T/C [3] 99.9% | viability, T/C [4] 89.7% | viability, T/C [5] 106% | viability, T/C [6] 102% | viability, T/C [7] 105% | viability, T/C [8] 75.8% | viability, T/C [9] 106% | viability, T/C [10] 82% | viability, T/C [11] 104% | viability, T/C [12] 108% | viability, T/C [13] 90.4% | viability, T/C [14] 107% | viability, T/C [15] 96.4% | viability, T/C [16] 103% | viability, T/C [17] 96.8% | viability, T/C [18] 95% | viability, T/C [19] 88% | viability, T/C [20] 94.1% | viability, T/C [21] 99.8% | viability, T/C [22] 97.5% | viability, T/C [23] 109% | viability, T/C [24] 95.8% | viability, T/C [25] 83.6% | viability, T/C [26] 85% | viability, T/C [27] 95.2% | viability, T/C [28] 87.2% | viability, T/C [29] 92.9% | viability, T/C [30] 93.8% | viability, T/C [31] 94.6% | viability, T/C [32] 87.8% | viability, T/C [33] 95.5% | viability, T/C [34] 94.2% | viability, T/C [35] 95.2% | viability, T/C [36] 80.6%
> 10 µM: IC50 (second compound 0.0316 µM) | IC50 (second compound 0.1 µM) | IC50 (second compound 0.316 µM) | IC50 (second compound 1 µM) | IC50 (second compound 3.16 µM) | IC50 (second compound 10 µM)

CC(Cn1ccc(-c2ccc(C#N)c(Cl)c2)n1)NC(=O)c1cc(C(C)O)[nH]n1 (stereo not given) + Cc1nc(NC(=O)N2CCCC2C(N)=O)sc1-c1ccnc(C(C)(C)C(F)(F)F)c1
> 10 µM: IC50 (second compound 0.0316 µM) | IC50 (second compound 0.1 µM) | IC50 (second compound 0.316 µM) | IC50 (second compound 1 µM) | IC50 (second compound 3.16 µM) | IC50 (second compound 10 µM)
inactive: viability, T/C [1] 105% | viability, T/C [2] 108% | viability, T/C [3] 110% | viability, T/C [4] 98.4% | viability, T/C [5] 105% | viability, T/C [6] 107% | viability, T/C [7] 98.1% | viability, T/C [8] 99.7% | viability, T/C [9] 111% | viability, T/C [10] 105% | viability, T/C [11] 120% | viability, T/C [12] 112% | viability, T/C [13] 93.1% | viability, T/C [14] 104% | viability, T/C [15] 103% | viability, T/C [16] 97.9% | viability, T/C [17] 102% | viability, T/C [18] 99.1% | viability, T/C [19] 95.9% | viability, T/C [20] 108% | viability, T/C [21] 91.4% | viability, T/C [22] 99.2% | viability, T/C [23] 111% | viability, T/C [24] 111% | viability, T/C [25] 98.4% | viability, T/C [26] 96.1% | viability, T/C [27] 103% | viability, T/C [28] 105% | viability, T/C [29] 105% | viability, T/C [30] 101% | viability, T/C [31] 90.2% | viability, T/C [32] 84.3% | viability, T/C [33] 97% | viability, T/C [34] 98.9% | viability, T/C [35] 95% | viability, T/C [36] 91.2%

Cn1ncc(Cl)c1-c1cc(C(=O)NC(CN)Cc2cccc(F)c2)sc1Cl (stereo not given) + Cc1nc(NC(=O)N2CCCC2C(N)=O)sc1-c1ccnc(C(C)(C)C(F)(F)F)c1
inactive: viability, T/C [1] 91.1% | viability, T/C [2] 74.3% | viability, T/C [3] 75.3% | viability, T/C [4] 67.1% | viability, T/C [5] 71.3% | viability, T/C [6] 67.4% | viability, T/C [7] 96.9% | viability, T/C [8] 85.2% | viability, T/C [9] 66.8% | viability, T/C [10] 54% | viability, T/C [11] 64.4% | viability, T/C [12] 67.4% | viability, T/C [13] 77.6% | viability, T/C [14] 83.5% | viability, T/C [15] 73.4% | viability, T/C [16] 55.9% | viability, T/C [17] 67.3% | viability, T/C [18] 54% | viability, T/C [19] 84.5% | viability, T/C [20] 85.4% | viability, T/C [21] 78% | viability, T/C [22] 58.5% | viability, T/C [23] 62.8% | viability, T/C [24] 51.2% | viability, T/C [25] 83.1% | viability, T/C [26] 78.8% | viability, T/C [27] 84.2% | viability, T/C [28] 67% | viability, T/C [29] 61.5% | viability, T/C [30] 47.2% | viability, T/C [31] 84.8% | viability, T/C [32] 78.8% | viability, T/C [33] 81.7% | viability, T/C [34] 69.3% | viability, T/C [35] 57.6% | viability, T/C [36] 28.5%
8.01 µM: IC50 (second compound 3.16 µM)
4.16 µM: IC50 (second compound 10 µM)
> 10 µM: IC50 (second compound 0.0316 µM) | IC50 (second compound 0.1 µM) | IC50 (second compound 0.316 µM) | IC50 (second compound 1 µM)

Cn1nccc1Nc1nccc(-c2ccn(C(CO)c3ccc(Cl)c(F)c3)c(=O)c2)n1 (stereo not given) + Cc1nc(NC(=O)N2CCCC2C(N)=O)sc1-c1ccnc(C(C)(C)C(F)(F)F)c1
active: viability, T/C [36] 8.46%
inactive: viability, T/C [1] 108% | viability, T/C [2] 94.2% | viability, T/C [3] 106% | viability, T/C [4] 88.9% | viability, T/C [5] 99.6% | viability, T/C [6] 79.2% | viability, T/C [7] 95.8% | viability, T/C [8] 87.3% | viability, T/C [9] 94.6% | viability, T/C [10] 91.4% | viability, T/C [11] 99.6% | viability, T/C [12] 75.9% | viability, T/C [13] 105% | viability, T/C [14] 108% | viability, T/C [15] 87.2% | viability, T/C [16] 85% | viability, T/C [17] 81.1% | viability, T/C [18] 68.5% | viability, T/C [19] 92.1% | viability, T/C [20] 91.5% | viability, T/C [21] 91% | viability, T/C [22] 84.5% | viability, T/C [23] 88% | viability, T/C [24] 59.9% | viability, T/C [25] 85.9% | viability, T/C [26] 89.3% | viability, T/C [27] 79.8% | viability, T/C [28] 79.1% | viability, T/C [29] 58.8% | viability, T/C [30] 50.7% | viability, T/C [31] 87.7% | viability, T/C [32] 86% | viability, T/C [33] 83.7% | viability, T/C [34] 63.1% | viability, T/C [35] 21.8%
1.44 µM: IC50 (second compound 10 µM)
> 10 µM: IC50 (second compound 0.0316 µM) | IC50 (second compound 0.1 µM) | IC50 (second compound 0.316 µM) | IC50 (second compound 1 µM) | IC50 (second compound 3.16 µM)
